This is an account of results in patent US20040171954A1, “Methods for determining whether to provide an inhibitor of sympathetic nervous system activity to a human being suffering from an autoimmune disease or fibryomyalgia” (CNS-Rheumatology, Inc., priority 2003, published 2004).

Read-outs that look alike come from different tables or passages of the source.

The subject of data set [1] is sympathetic nervous system activity in the heart. The conditions noted are these: for sympathetic / tension / total power / vagus: one patient on pramipexole plus steroid therapy; for sympathetic (heart rate variability) / tension (heart rate variability) / total power (heart rate variability) / vagus (heart rate variability): one patient. An excerpt: This system is commercially available as The OmegaWave Sport Technology System, which is sold by OmegaWave Sport, Inc., 2732 Sunnyview Lane, Eugene, Oreg. 97405, USA. […] FIG. 4 illustrates one embodiment of components of the system and various electrode/sensor placements on the human body. System 10 is adapted to perform the following tests on a human body: Heart Rate Variability; Differential electrocardiogram (ECG); Omega Wave; Jump; and Stimulus Response. In the practice of the present invention, system 10 is used to perform the Heart Rate Variability test.
Referring to FIG. 7, a diagram that illustrates the steps of conducting a heart rate variability test in accordance with the present invention is shown. In step 110, a person receiving a test (PRT) positions him or herself for sensor attachment. In step 112, the sensors are attached. In step 114, a user selects the desired heart rate variability test from CD 50. In step 115, ID 40 is initialized for appropriate data sensing and data propagation by CD 50. In step 116, the PRT is instructed to attain or maintain a state of rest. In step 117, the machine executable steps of the selected test(s) is/are carried out by CD 50. […] A description of machine executable steps of the heart rate variability test selected in step 114 of FIG. 7 is now presented. Processing cardiac signals as discussed below permits quantitative and qualitative analysis of the functional state of cardiac activity.
In this representative heart rate variability test, four electrode sensors are preferably utilized and they are preferably placed one each on the wrists and ankles. One sensor electrode is a ground and the other three collect standard ECG data or the like. Alternative sensor placement may be utilized. The heart rate variability test is based on the registration of cardiac contractions of standard electrocardiogram (ECG) readings over the course of a fixed span of time. The test records the change of period length (in seconds) between each cardiac contraction which is the time between ECG spikes, which are designated with the letter R.
After initialization of ID 40, cardiac muscle electrical activity is recorded for a fixed time period, e.g., 128 seconds (step 152). A fixed number of consecutive heart beat intervals (RR intervals), e.g., 100, is selected and analyzed (step 154). The intervals are processed in this exemplary method using a fast Fourier transformation to achieve frequency spectrum analysis (step 156) and the density of interval frequencies is plotted in a frequency spectrum-gram (step 158). Frequency spectrum analysis is known in the art as described supra. The following frequency ranges are preferably plotted: high frequency=0.15 to 0.4 Hz; low frequency=0.04 to 0.15 Hz; and very low frequency=0.004 to 0.04 Hz.
In step 172, various indices for cardiovascular system performance are calculated based on frequency spectrum and other data and these include: Vagus (parasympathetic) Regulation (VR); Humoral Regulation (HR); Sympathetic Regulation (SR); Tension (Stress) Index; Share of aperiodic influences; Standard deviation; and Frequency of Cardiac Contractions (FCC). Calculation of these or related indices is known in the art. (See, e.g., Baevskiy, R. M., et al., Mathematical Analysis of Changes in Heart Rate Rhythm Under Stress, Moscow Science, 1984). These indices may be interpreted to generate textual conclusions about the functional state of cardiac activity.
The OmegaWave Sport Technology System, described herein and in published United States patent application serial number U.S. 2002/0045835 A1, provides three values that can be used singly, or in combination, to determine whether sympathetic nervous system activity predominates over parasympathetic nervous system activity in the heart: activity of the vagus (parasympathetic) regulation mechanisms; activity of the sympathetic regulation mechanisms; and Tension index.

The test system of data set [2] is patient two suffering from autoimmune hemolytic anemia with leukopenia. The note with it: one patient. An excerpt:
Patient two suffered from autoimmune hemolytic anemia. The patient had leukopenia (reduced white blood cell (WBC) count; 2,300 WBC). Steroids were recommended, but the patient refused. The patient's heart rate variability was monitored using system 10: vagus, 0.17; sympathetic, 52; tension, 199; total power, 201. […] Therefore, pramipexole was prescribed for administration at night to address sympathetic overactivity. The patient's symptoms improved, and their WBC count began to increase (2400). These changes correlated with a reduction in excessive sympathetic nervous system activity: vagus, 0.22; sympathetic, 45; tension, 147; total power, 294.
The patient discontinued pramipexole against medical advice. WBC decreased to 2100 as excessive sympathetic nervous system activity increased: vagus, 0.20; sympathetic, 70; tension, 236; total power, 280.

The test system of data set [3] is patient one suffering from Ankylosing Spondylitis. Kind of data set: Clinical course of a patient with ankylosing spondylitis (Example 7). The data set is classed as in vivo, human. The conditions noted are these: for control of the disease by prior therapy: before pramipexole.
Data set [4] has as its system patient suffering from severe, previously untreatable, psoriatic arthropathy. In words: Clinical course of a patient with severe psoriatic arthropathy (Example 3). The data set is classed as in vivo, human. The note with it: one patient. An excerpt: The following heart rate variability measurements were made in the patient using system 10: vagus, 0.16; sympathetic, 54; tension, 220; total power, 283.

Where [5] appears, read: after the patient discontinued pramipexole.
Where [6] appears, read: pramipexole 2.0 mg per day at bedtime, with etanercept.
Setting [7] is: pramipexole increased over 4 weeks to 4.5 mg per day at bedtime.

Consider `CCCN[C@H]1CCc2nc(N)sc2C1` [pramipexole], for which the sympathetic in data set [1] (Dec. 11, 2001) was found to be 61; in data set [1] (Feb. 5, 2002) it was 87; in data set [1] (Nov. 14, 2001) it was 93; in data set [1] (Oct. 10, 2001) it was 93. Besides, the tension in data set [1] (Dec. 11, 2001) is 374; in data set [1] (Feb. 5, 2002), 569; in data set [1] (Nov. 14, 2001) it was 1278; in data set [1] (Oct. 10, 2001), 1444. Further, the total power in data set [1] (Dec. 11, 2001) amounted to 102; in data set [1] (Feb. 5, 2002) it was 128; in data set [1] (Nov. 14, 2001), 24; in data set [1] (Oct. 10, 2001), 29. Besides, the vagus result was “.10” in data set [1] (Dec. 11, 2001); “.09” in data set [1] (Feb. 5, 2002); “.05” in data set [1] (Nov. 14, 2001); “.05” in data set [1] (Oct. 10, 2001). Moreover, the “sympathetic (heart rate variability)” value in data set [1] (setting [5]) came out at 70; in data set [1] (on pramipexole at night) it was 45; in data set [1] (setting [6]) it was 54; in data set [1] (setting [7]), 43. The “tension (heart rate variability)” value turned out to be 236 in data set [1] (setting [5]); 147 in data set [1] (on pramipexole at night); 220 in data set [1] (setting [6]); 145 in data set [1] (pramipexole increased over 4 weeks to 4.5 mg per day at bedtime, now normal). Moreover, the “total power (heart rate variability)” value is 280 in data set [1] (setting [5]), 294 in data set [1] (on pramipexole at night), 283 in data set [1] (setting [6]) and 319 in data set [1] (setting [7]). Further, the “vagus (heart rate variability)” value in data set [1] (setting [5]) turned out to be 0.20; in data set [1] (on pramipexole at night), 0.22; in data set [1] (setting [6]), 0.16; in data set [1] (setting [7]), 0.19. This molecule showed a WBC in data set [2] (setting [5]) of 2100. In data set [2] (on pramipexole at night, 2,300 before treatment), the WBC count is 2400.
As for `C[C@]12C=CC(=O)C=C1CC[C@@H]1[C@@H]2C(=O)C[C@@]2(C)[C@H]1CC[C@]2(O)C(=O)CO` [prednisone], the “adverse outcome of excessive prednisone” value in data set [3] (prednisone 40 mg per day) was “avascular necrosis of both hips and hip replacement”.
As for etanercept, the “response of chronic joint flares and synovial thickening to treatment” value in data set [4] (fifteen years, before pramipexole) was “resistant”. For the same molecule, the “effectiveness of etanercept after pramipexole was added” value in data set [4] (over six weeks, pramipexole 2.0 mg per day at bedtime) was “became more effective”. Besides, the “control of the disease by prior therapy” value in data set [3] is “failed to control”.
In the case of `CN(Cc1cnc2nc(N)nc(N)c2n1)c1ccc(C(=O)N[C@@H](CCC(=O)O)C(=O)O)cc1` [methotrexate], the “control of the disease by prior therapy” value in data set [3] was “failed to control”.
